Experimental data taken from article PMC7596181 (Frontiers in Immunology, 2020).

Target: T1, mouse TLR4 (Mus musculus, UniProt Q9JHF9+Q9QUK6)
T1 sequence (Q9QUK6 26-835): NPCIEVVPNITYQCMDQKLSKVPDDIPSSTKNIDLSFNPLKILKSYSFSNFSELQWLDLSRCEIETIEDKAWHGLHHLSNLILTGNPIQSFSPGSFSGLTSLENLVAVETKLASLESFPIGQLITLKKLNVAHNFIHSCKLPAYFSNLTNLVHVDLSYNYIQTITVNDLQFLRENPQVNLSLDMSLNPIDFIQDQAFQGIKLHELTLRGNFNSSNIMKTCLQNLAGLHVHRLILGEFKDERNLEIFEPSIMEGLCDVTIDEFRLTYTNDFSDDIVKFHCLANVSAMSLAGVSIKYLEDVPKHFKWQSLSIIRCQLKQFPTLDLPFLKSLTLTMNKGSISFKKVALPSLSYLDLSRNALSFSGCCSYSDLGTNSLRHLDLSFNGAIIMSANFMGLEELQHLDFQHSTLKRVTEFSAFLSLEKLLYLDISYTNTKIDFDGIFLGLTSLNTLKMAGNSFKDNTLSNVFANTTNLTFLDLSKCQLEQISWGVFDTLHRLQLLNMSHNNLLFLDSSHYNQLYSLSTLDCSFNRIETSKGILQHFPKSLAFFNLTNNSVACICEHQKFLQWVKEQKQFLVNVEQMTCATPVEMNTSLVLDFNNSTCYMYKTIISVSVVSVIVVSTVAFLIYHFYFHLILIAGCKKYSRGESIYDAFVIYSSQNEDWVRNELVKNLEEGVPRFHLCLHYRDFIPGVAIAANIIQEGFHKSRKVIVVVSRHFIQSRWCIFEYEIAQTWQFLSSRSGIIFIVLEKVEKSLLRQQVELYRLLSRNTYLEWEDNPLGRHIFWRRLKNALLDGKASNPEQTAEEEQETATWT
T1 sequence (Q9JHF9 19-160): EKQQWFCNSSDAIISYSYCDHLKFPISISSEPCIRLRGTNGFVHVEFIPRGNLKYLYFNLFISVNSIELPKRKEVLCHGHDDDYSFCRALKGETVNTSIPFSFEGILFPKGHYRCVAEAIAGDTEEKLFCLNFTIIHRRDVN
Assay: SEAP assay, agonist dose response in mouse TLR4 HEK-Blue reporter cells
Format: cell-based
Parameters: host or cells: HEK-Blue (HEK293-derived) reporter cells
Conditions: for agonist profile: mouse TLR4 HEK-Blue reporter cells
Description: Human and mouse HEK-Blue reporter cells express human or mouse CD14, MD2, and TLR4 and secreted embryonic alkaline phosphatase (SEAP) under control of a promoter with binding sites for NFκB and AP-1 transcription factors (InvivoGen cat. nos. hkb-htlr4 and hkb-mtlr4). Cells were cultured as directed by the supplier, with the exception that Glutamax (ThermoFisher cat. no. 10569010) was used in place of L-glutamine, and TrypLE Express (ThermoFisher cat. no. 12605010) was used to release adherent cells for each passage. BALB/c mouse RAW264.7 and human THP-1 cells (ATCC® cat. nos. TIB-71 and TIB-202) were cultured in DMEM (4.5 g/L D-Glucose with 2 mM L-glutamine, 1 mM sodium pyruvate, 100 U/ml penicillin and 100 μg/ml streptomycin) supplemented with 10% heat-inactivated FBS. THP-1 cells were exposed to phorbol-12-myristate-13-acetate (PMA, InvivoGen cat no. tlrl-pma), 5 ng/ml, for 48 h prior to treatment with TLR4 agonists. Bone marrow-derived dendritic cells (BMDCs) were generated using C57BL/6 mouse femurs following the exact method published by Lutz et al. ([29]) except that 5 rather than 20 ng/ml recombinant GM-CSF was used to differentiate the DC. Human peripheral blood […] (PBMCs) were prepared from venous blood of healthy volunteers that had been collected using sodium citrate as anti-coagulant, 20 ml of which was mixed with 15 ml calcium- and magnesium-free Hank’s Balanced Saline Solution (HBSS) and then laid over 6 ml Histopaque®-1077 (1.077 g/ml, Sigma-Aldrich cat no. 10771) for density gradient centrifugation. The buffy coat layer was collected by pipette, washed once in HBSS, once in serum-free RPMI-1640, and then the PBMCs were resuspended in RPMI-1640 supplemented with 100 U/ml penicillin, 100 µg/ml streptomycin, 1 mM Na-Pyruvate, 2 mM L-glutamine, 50 μM βME and 10% heat-inactivated, male AB human serum for culture.
SEAP assays were performed to evaluate the extent to which TLR4 signaling was activated in HEK-Blue reporter cells expressing mouse or human receptors (CD14, MD2 and TLR4). Reporter cells were harvested when 70–80% confluent and plated in 96-well, flat-bottom microtiter plates either 1 h, one day or two days (5 × 10^4, 4 × 10^4 or 2 × 10^4 cells/well, respectively) before addition of TLR4 agonists for 18–24 h. Culture supernatants were transferred to U-bottom microtiter plates, centrifuged and transferred again to microtiter plates to ensure reporter cells were not present. The culture supernatants were added to QUANTI-BLUE substrate following instructions provided by the manufacturer (InvivoGen cat. nos. rep-qbl or rep-qbs) and incubated at 37°C in a tissue culture incubator. At successive intervals beginning 10 min after mixing the supernatants and substrate, the plates were placed in an Emax plate reader (Molecular Devices LLC) and optical density was measured at visible light wavelength […] (OD650). The shortest incubations at which dose response curve fits produced maximal R^2 ‘goodness of fit’ values, as determined by GraphPad Prism software, were used for analysis.
Pharmacological profiles of the TLR4 reagents were generated by performing dose response curves in one of four formats. 1) Agonist potency and efficacy (EC50 and height of dose plateau, respectively) were measured by diluting TLR4 reagents successively in complete culture medium [DMEM or RPMI supplemented with fetal bovine serum (FBS) or RPMI supplemented with human serum, depending on cell-type]. Half-log step dilutions were performed in 96-well, U-bottom microtiter plates using a multichannel pipette to transfer and mix the suspensions, with fresh tips used for each dilution step. One-tenth (20 μl) volumes from wells of the dilution plate were then transferred to wells containing cells that had been plated in nine-tenth volumes (180 μl) of culture medium. […]

| Compound | agonist profile | efficacy relative to the full agonist PHAD (mouse TLR4 HEK-Blue, 100% = top dose plateau of PHAD) |
| --- | --- | --- |
| CCCCCCCCCCCC(=O)OC(CCCCCCCCCCC)CC(=O)NC1C(OCC2OC(O)C(NC(=O)CC(O)CCCCCCCCCCC)C(O)C2O)OC(CO)C(OP(=O)(O)O)C1O (stereo not shown) [ML3] | largely inactive | – |
| CCCCCCCCCCCC(=O)OC(CCCCCCCCCCC)CC(=O)NC1C(OCC2OC(O)C(NC(=O)CC(O)CCCCCCCCCCC)C(O)C2O)OC(CO)C(OP(=O)(O)O)C1OC(=O)CC(O)CCCCCCCCCCC (stereo not shown) [ML4A] | agonist only of mouse TLR4 | ~80% |
| CCCCCCCCCCCCCCCC(=O)OC(CCCCCCCCCCC)CC(=O)NC1C(O)OC(COC2OC(CO)C(OP(=O)(O)O)C(O)C2NC(=O)CC(CCCCCCCCCCC)OC(=O)CCCCCCCCCCC)C(O)C1O (stereo not shown) [ML4B] | largely inactive | – |
